Results reported in ChEMBL document CHEMBL1759880, “A facile, one-pot synthesis, characterization and antimicrobial activity of o-hydroxy anilide derivatives and 1-substituted-1,3-dicyclohexylurea analogs of long chain carboxylic acids” (2011).
In brackets after ≈: the same amount, converted by molar mass.

How the values were obtained:
Escherichia coli [1] = assay: Antibacterial activity against Escherichia coli ATCC 25922 after 24 hrs by broth dilution technique; type: functional; settings: ATCC-25922, 24 h
Candida albicans [2] = assay: Antifungal activity against Candida albicans after 48 hrs by broth dilution technique; type: functional
Pseudomonas aeruginosa [3] = assay: Antibacterial activity against Pseudomonas aeruginosa ATCC 27853 after 24 hrs by disc diffusion method
Escherichia coli [4] = assay: Antibacterial activity against Escherichia coli ATCC 25922 after 24 hrs by disc diffusion method; type: functional
Pseudomonas aeruginosa [5] = assay: Antibacterial activity against Pseudomonas aeruginosa ATCC 27853 after 24 hrs by broth dilution technique; settings: ATCC-27853, 24 h
Candida albicans [6] = assay: Antifungal activity against Candida albicans after 3 to 4 days by disc diffusion method; type: functional
Aspergillus fumigatus [7] = assay: Antifungal activity against Aspergillus fumigatus after 3 to 4 days by disc diffusion method; type: functional
Streptococcus pyogenes [8] = assay: Antibacterial activity against Streptococcus pyogenes clinical isolate after 24 hrs by broth dilution technique; type: functional
Talaromyces marneffei [9] = assay: Antifungal activity against Penicillium marneffei after 48 hrs by broth dilution technique; type: functional
Talaromyces marneffei [10] = assay: Antifungal activity against Penicillium marneffei after 3 to 4 days by disc diffusion method; type: functional
Aspergillus fumigatus [11] = assay: Antifungal activity against Aspergillus fumigatus after 48 hrs by broth dilution technique; type: functional
Staphylococcus aureus [12] = assay: Antibacterial activity against Staphylococcus aureus ATCC 25923 after 24 hrs by disc diffusion method; type: functional
Klebsiella pneumoniae [13] = assay: Antibacterial activity against Klebsiella pneumoniae clinical isolate after 24 hrs by disc diffusion method; type: functional
[14] = test system: Trichophyton mentagrophytes; assay: Antifungal activity against Trichophyton mentagrophytes after 48 hrs by broth dilution technique; type: functional
[15] = test system: Trichophyton mentagrophytes; assay: Antifungal activity against Trichophyton mentagrophytes after 3 to 4 days by disc diffusion method; type: functional
Streptococcus pyogenes [16] = assay: Antibacterial activity against Streptococcus pyogenes clinical isolate after 24 hrs by disc diffusion method; type: functional
Staphylococcus aureus [17] = assay: Antibacterial activity against Staphylococcus aureus ATCC 25923 after 24 hrs by broth dilution technique; type: functional; settings: ATCC-25923, 24 h
Klebsiella pneumoniae [18] = assay: Antibacterial activity against Klebsiella pneumoniae clinical isolate after 24 hrs by broth dilution technique; type: functional

Row | Compound | MIC (Escherichia coli [1]) [µg/mL] | MIC (Candida albicans [2]) [µg/mL] | MIC (Pseudomonas aeruginosa [5]) [µg/mL] | MIC (Aspergillus fumigatus [11]) [µg/mL] | MIC [14] [µg/mL] | MIC (Staphylococcus aureus [17]) [µg/mL] | MBC (Escherichia coli [1]) [µg/mL] | MFC (Candida albicans [2]) [µg/mL] | diameter of the inhibition zone (DIZ) (Pseudomonas aeruginosa [3]) [mm] | diameter of the inhibition zone (DIZ) (Escherichia coli [4]) [mm] | MBC (Pseudomonas aeruginosa [5]) [µg/mL] | diameter of the inhibition zone (DIZ) (Candida albicans [6]) [mm] | diameter of the inhibition zone (DIZ) (Aspergillus fumigatus [7]) [mm] | diameter of the inhibition zone (DIZ) (Talaromyces marneffei [10]) [mm] | MFC (Aspergillus fumigatus [11]) [µg/mL] | diameter of the inhibition zone (DIZ) (Staphylococcus aureus [12]) [mm] | diameter of the inhibition zone (DIZ) (Klebsiella pneumoniae [13]) [mm] | MFC [14] [µg/mL] | diameter of the inhibition zone (DIZ) [15] [mm] | diameter of the inhibition zone (DIZ) (Streptococcus pyogenes [16]) [mm] | also measured
1 | CCCCCCCC/C=C\CCCCCCCC(=O)Nc1ccccc1O | 100 (≈ 268 µM) | 50 (≈ 134 µM) | 100 (≈ 268 µM) | 25 (≈ 66.9 µM) | 50 (≈ 134 µM) | 100 (≈ 268 µM) | 100 (≈ 268 µM) | 50 (≈ 134 µM) | 15.2 | 13.2 | 100 (≈ 268 µM) | 15.3 | 11.7 | 9.2 | 100 (≈ 268 µM) | 11.1 | 10.8 | 100 (≈ 268 µM) | 8.9 | 11.4 | MBC (Streptococcus pyogenes [8]): 100 µg/mL (≈ 268 µM); MIC (Streptococcus pyogenes [8]): 50 µg/mL (≈ 134 µM); MFC (Talaromyces marneffei [9]): 100 µg/mL (≈ 268 µM); MIC (Talaromyces marneffei [9]): 50 µg/mL (≈ 134 µM); MBC (Staphylococcus aureus [17]): 100 µg/mL (≈ 268 µM)
2 | CCCCCC[C@@H](O)C/C=C\CCCCCCCC(=O)N(C(=O)NC1CCCCC1)C1CCCCC1 | 50 (≈ 99 µM) | 25 (≈ 49.5 µM) | 50 (≈ 99 µM) | 25 (≈ 49.5 µM) | 25 (≈ 49.5 µM) | 50 (≈ 99 µM) | 100 (≈ 198 µM) | 50 (≈ 99 µM) | 23.2 | 20.7 | 100 (≈ 198 µM) | 18.3 | 14.9 |  | 100 (≈ 198 µM) | 18.5 | 17.5 | 100 (≈ 198 µM) | 13.1 | 19.1 | MBC (Klebsiella pneumoniae [18]): 100 µg/mL (≈ 198 µM); MIC (Klebsiella pneumoniae [18]): 50 µg/mL (≈ 99 µM); MBC (Streptococcus pyogenes [8]): 100 µg/mL (≈ 198 µM); MIC (Streptococcus pyogenes [8]): 50 µg/mL (≈ 99 µM); MBC (Staphylococcus aureus [17]): 100 µg/mL (≈ 198 µM)
3 | CCCCCCCC/C=C\CCCCCCCC(=O)N(C(=O)NC1CCCCC1)C1CCCCC1 | 100 (≈ 205 µM) | 50 (≈ 102 µM) | 100 (≈ 205 µM) | 50 (≈ 102 µM) |  |  | 100 (≈ 205 µM) | 100 (≈ 205 µM) | 17.2 | 15.4 | 100 (≈ 205 µM) | 13.9 | 9.9 |  | 100 (≈ 205 µM) | 13.4 | 12.8 |  |  | 13.5 | 
4 | O=C(O)c1cn(C2CC2)c2cc(N3CCNCC3)c(F)cc2c1=O [CIPROFLOXACIN] |  |  | 6.5 (≈ 19.6 µM) |  |  |  |  |  | 32 |  |  |  |  |  |  | 22 |  |  |  |  | 

Continued by falling MIC (Candida albicans [2]), values first:

Row | MIC (Escherichia coli [1]) [µg/mL] | MIC (Candida albicans [2]) [µg/mL] | MIC (Pseudomonas aeruginosa [5]) [µg/mL] | MIC (Aspergillus fumigatus [11]) [µg/mL] | MIC [14] [µg/mL] | MIC (Staphylococcus aureus [17]) [µg/mL] | Compound | MBC (Escherichia coli [1]) [µg/mL] | MFC (Candida albicans [2]) [µg/mL] | diameter of the inhibition zone (DIZ) (Pseudomonas aeruginosa [3]) [mm] | diameter of the inhibition zone (DIZ) (Escherichia coli [4]) [mm] | MBC (Pseudomonas aeruginosa [5]) [µg/mL] | diameter of the inhibition zone (DIZ) (Candida albicans [6]) [mm] | diameter of the inhibition zone (DIZ) (Aspergillus fumigatus [7]) [mm] | diameter of the inhibition zone (DIZ) (Talaromyces marneffei [10]) [mm] | MFC (Aspergillus fumigatus [11]) [µg/mL] | diameter of the inhibition zone (DIZ) (Staphylococcus aureus [12]) [mm] | diameter of the inhibition zone (DIZ) (Klebsiella pneumoniae [13]) [mm] | MFC [14] [µg/mL] | diameter of the inhibition zone (DIZ) [15] [mm] | diameter of the inhibition zone (DIZ) (Streptococcus pyogenes [16]) [mm] | also measured
5 | 100 (≈ 256 µM) | 50 (≈ 128 µM) | 50 (≈ 128 µM) |  |  |  | C=CCCCCCCCCC(=O)N(C(=O)NC1CCCCC1)C1CCCCC1 | 100 (≈ 256 µM) | 100 (≈ 256 µM) | 12.1 | 10.6 | 100 (≈ 256 µM) | 12.1 |  |  |  |  |  |  |  |  | 
6 |  | 50 (≈ 182 µM) |  |  |  | 100 (≈ 363 µM) | C=CCCCCCCCCC(=O)Nc1ccccc1O |  | 100 (≈ 363 µM) | 14.3 | 12.7 |  | 12.5 | 9.2 | 8.9 |  | 10.9 |  |  | 8.3 | 11.1 | MBC (Klebsiella pneumoniae [18]): 100 µg/mL (≈ 363 µM); MIC (Klebsiella pneumoniae [18]): 100 µg/mL (≈ 363 µM)
7 |  | 6.25 (≈ 17.7 µM) |  | 6.25 (≈ 17.7 µM) | 6.25 (≈ 17.7 µM) |  | COC1=CC(=O)C[C@@H](C)[C@]12Oc1c(Cl)c(OC)cc(OC)c1C2=O [GRISEOFULVIN] |  | 12.5 (≈ 35.4 µM) |  |  |  | 30 | 27 | 20 | 12.5 (≈ 35.4 µM) |  |  | 12.5 (≈ 35.4 µM) | 24 |  | MFC (Talaromyces marneffei [9]): 12.5 µg/mL (≈ 35.4 µM); MIC (Talaromyces marneffei [9]): 6.25 µg/mL (≈ 17.7 µM)
